Laboratory results reported in patent US8067015B2, “Methods and compositions for the treatment and prevention of Staphylococcus and other bacterial infections” (priority 1997, dated 2011).

Columns and labels:
Type in all cases: in vivo
[1] = tested on: S. epidermidis GISE strain; assay: Rat subcutaneous Dacron graft infection model, GISE strain; details: rats; for Bacterial concentration, GISE: 2×10^7 bacteria, explanted day 7, mean ± SD
Procedure: (§1) Rats (Wistar adult males (300-350 g), n=15/experimental group) were anaesthetized, hair on their back shaved and the skin cleansed with 10% povidone-iodine solution. A subcutaneous pocket was made on the side of the median line by a 1.5 cm incision. Aseptically, 1 cm^2 sterile collagen-sealed Dacron graft (Albograft™, Sorin Biomedica Cardio, S.p.A., Saluggi VC, Italy) was implanted into the pocket. […] Pockets were closed by skin clips and 1 ml sterile saline solution with or without 2×10^7 bacteria was inoculated onto the graft surface using a tuberculin syringe to create a subcutaneous fluid-filled pocket. Some of the animals that had grafts soaked only with RIP or saline were injected intraperitoneally with antibiotics (cefazolin 30 mg/kg, imipenem 30 mg/kg, teicoplanin 10 mg/kg, levofloxacin 10 mg/kg). Grafts were explanted 7 days following implantation.
(§2) The explanted grafts were placed in sterile tubes, washed in sterile saline solution, placed in tubes containing 10 ml of phosphate-buffered saline solution and sonicated for 5 min to remove the adherent bacteria from the grafts. Quantitation of viable bacteria was performed by culturing serial 10-fold dilutions (0.1 ml) of the bacterial suspension on blood agar plates. All plates were incubated at 37° C. for 48 hr and evaluated for the presence of the strain. Bacteria were quantitated by counting the number of colony forming unites (CFU) per plate. To determine if bacteria were efficiently removed from the graft, washed and sonicated grafts were observed under a Nikon Eclipse E 600 optical microscope (Nikon Y-THS, Japan).
(§3) Quantitative culture results of the in vivo experiments were presented as mean+SD of the mean. Comparisons of the results were performed by the analysis of variance (ANOVA) on the log-transformed data. Statistical analysis was performed for in vitro adhesion assays using Student's t-Test by Microsoft Excel (Microsoft, Wash.). Significance was accepted when the P value was <0.05.
(§4) To test if RIP can prevent graft-associated infections, Dacron grafts were coated with or without RIP, and with or without various types of antibiotics (for local prophylaxis experiments). Coated grafts were implanted in rats, bacteria injected into the implants, implants removed after a week, and bacterial load determined. Alternatively, Dacron grafts were first coated with RIP, bacteria injected, and antibiotics were administered by the intraperitoneal route (for parenteral prophylaxis experiments). As a negative control, grafts were implanted without local or parenteral RIP/antibiotics prophylaxis and no bacteria were injected. As a positive control, grafts were implanted, bacteria were injected, but no RIP/antibiotics prophylaxis was given.
(§5) Animals (15/group) received a Dacron-graft implanted in a subcutaneous pocket. Graft was subsequently infected with either S. epidermidis (tested on MSSE, MRSE and GISE) or with S. aureus (tested on MSSA, MRSA and GISA). […]

[2] = tested on: S. epidermidis MRSE strain; assay: Rat subcutaneous Dacron graft infection model, MRSE strain; details: rats; for Bacterial concentration, MRSE: 2×10^7 bacteria, explanted day 7, mean ± SD
Procedure: as §1, §2, §3, §4
Animals (15/group) received a Dacron-graft implanted in a subcutaneous pocket. Graft was subsequently infected with either S. epidermidis (tested on MSSE, MRSE and GISE) or with S. aureus (tested on MSSA, MRSA and GISA). The Dacron-graft prior to implantation was soaked in saline with or without 20 mg/l of RIP and some animals received […] of RIP i.p. as a prophylaxis treatment.

[3] = tested on: S. epidermidis MSSE strain; assay: Rat subcutaneous Dacron graft infection model, MSSE strain; details: rats; for Bacterial concentration, MSSE: 2×10^7 bacteria, explanted day 7, mean ± SD
Procedure: as §1, §2, §3, §4, §5

[4] = B. Parenteral prophylaxis: antibiotic intraperitoneally (cefazolin 30, imipenem 30, teicoplanin 10, levofloxacin 10 mg/kg), RIP as 10 mg/l graft soak
[5] = A. Local prophylaxis: graft soaked 20 min in RIP 10 mg/l and/or antibiotic (mupirocin 100, quinupristin-dalfopristin 50, levofloxacin 30, rifampin 5 mg/l)
[6] = peptide-soaked/coated Dacron graft (RIP 10 mg/l), no antibiotic, day 7

| Molecule | Bacterial concentration, GISE [1, 4] | Bacterial concentration, MRSE [2, 4] | Bacterial concentration, MSSE [3, 4] | Bacterial concentration, GISE [1, 5] | Bacterial concentration, MRSE [2, 5] | Bacterial concentration, MSSE [3, 5] | Quantitative culture results of explanted graft, GISE strain [1, 6] | Quantitative culture results of explanted graft, MRSE strain [2, 6] | Quantitative culture results of explanted graft, MSSE strain [3, 6] |
| --- | --- | --- | --- | --- | --- | --- | --- | --- | --- |
| Cc1nnc(SCC2=C(C(=O)O)N3C(=O)[C@@H](NC(=O)Cn4cnnn4)[C@H]3SC2)s1 [Cefazolin, cefazolin] | 590 ± 200 ×10^4 CFU/ml | 370 ± 120 ×10^4 CFU/ml | 0.64 ± 0.19 ×10^4 CFU/ml |  |  |  |  |  |  |
| C[C@@H](O)[C@H]1C(=O)N2C(C(=O)O)=C(SCCN=CN)C[C@H]12 [Imipenem, imipenem] | 89 ± 36 ×10^4 CFU/ml | 4 ± 1.8 ×10^4 CFU/ml | 0.73 ± 0.2 ×10^4 CFU/ml |  |  |  |  |  |  |
| C[C@H]1COc2c(N3CCN(C)CC3)c(F)cc3c(=O)c(C(=O)O)cn1c23 [Levofloxacin, levofloxacin] | 480 ± 170 ×10^4 CFU/ml | 3.9 ± 1.4 ×10^4 CFU/ml | 3.5 ± 1.1 ×10^4 CFU/ml | 280 ± 40 ×10^4 CFU/ml | 6.8 ± 2.5 ×10^4 CFU/ml | 4.2 ± 2.1 ×10^4 CFU/ml |  |  |  |
| C/C(=C\C(=O)OCCCCCCCCC(=O)O)C[C@@H]1OC[C@H](C[C@@H]2O[C@H]2[C@@H](C)[C@H](C)O)[C@@H](O)[C@H]1O [Mupirocin, mupirocin] |  |  |  | 0.07 ± 0.018 ×10^4 CFU/ml | 0.035 ± 0.014 ×10^4 CFU/ml | 0.064 ± 0.015 ×10^4 CFU/ml |  |  |  |
| CO[C@H]1/C=C/O[C@@]2(C)Oc3c(C)c(O)c4c(O)c(c(/C=N/N5CCN(C)CC5)c(O)c4c3C2=O)NC(=O)/C(C)=C\C=C\[C@H](C)[C@H](O)[C@@H](C)[C@@H](O)[C@@H](C)[C@H](OC(C)=O)[C@@H]1C [Rifampicin, rifampin] |  |  |  | 84 ± 27 ×10^4 CFU/ml | 0.8 ± 0.37 ×10^4 CFU/ml | 0.73 ± 0.2 ×10^4 CFU/ml |  |  |  |
| YKPETNF [inactive RIP peptide analogue] |  |  |  |  |  |  | 6.52×10^6±3×10^6 CFU/ml | 7.08×10^6±2.1×10^6 CFU/ml | 5.4×10^6±8×10^5 CFU/ml |
| quinupristin-dalfopristin |  |  |  | 0.0069 ± 0.0013 ×10^4 CFU/ml | 0.0048 ± 0.001 ×10^4 CFU/ml | 0.0026 ± 0.0003 ×10^4 CFU/ml |  |  |  |
| teicoplanin | 57 ± 24 ×10^4 CFU/ml | 0.072 ± 0.008 ×10^4 CFU/ml | 0.0084 ± 0.0004 ×10^4 CFU/ml |  |  |  |  |  |  |
